{
  "source": "patent US20230129651A1",
  "about": "“HAIRPIN STRUCTURE NUCLEIC ACID MOLECULES CAPABLE OF MODULATING TARGET GENE EXPRESSION AND USES THEREOF” (KOREA ADVANCED INSTITUTE OF SCIENCE AND TECHNOLOGY, priority 2021, published 2023)",
  "key": {"miR-155": {"tested_on": "miR-155", "test": "miR-155 expression in FLT3-ITD mutated AML cell line after treatment with AML therapeutic agents", "assay_type": "cell-based", "conditions": "NOLM-14; IC50 dose, 37° C., 72 hours", "experimental": "The FLT3-ITD mutated AML cell line (NOLM-14) was treated with an IC50 dose of cytarabine, azacitidine, decitabine, venetoclax, or gilteritinib, which is used as standard therapeutic agents for AML, at 37° C. for 72 hours, followed by measuring expression levels of miR-155."}, "Hela-141 cells": {"tested_on": "Hela-141 cells", "test": "Cell viability / apoptosis of Hela-141 cells after transfection", "assay_type": "cell-based", "experimental": "(§1) The miRNA triggers were assayed for cytotoxicity and apoptosis induction, using the CCK-8 (Cell Counting Kit-8) (Dojindo, Kumamoto, Japan) according to the manufacturer's instruction. Cells were incubated in 96-well plates (5×10^3 cells/well) at 37° C. for 24 hours under a 5% CO2 atmosphere, followed by transfection. Three days after transfection, the medium was removed. A 10-fold dilution of CCK-8 solution in DMEM was added to the cells which were then incubated at 37° C. for 2 hours. After incubation, absorbance was read at 450 nm on Tecan Infinite M200 pro microplate reader (Mnnedorf, Switzerland).\n(§2) The linear miRNA triggers or siRNAs (siLuc and siMcl-1) prepared above were transfected into Hela, Hela-141, and Hela-200c cells which were then measured for cell viability. The results are depicted in FIG. 15.\n(§3) The hairpin miRNA triggers prepared above were transfected into Hela and Hela-141 cells which were then assayed for apoptosis. As a control, the siRNA (siMcl-1; Table 14) which can repress the expression of mcl-1 was transfected to Hela and Hela-141 cells and measured for apoptotic activity."}, "Hela-200c cells": {"tested_on": "Hela-200c cells", "test": "Cell viability / apoptosis of Hela-200c cells after transfection", "assay_type": "cell-based", "experimental": "as §1, §2"}, "Mcl-1 protein": {"tested_on": "Mcl-1 protein", "test": "Western blotting of Mcl-1 protein in Hela-141 cells", "assay_type": "cell-based", "conditions": "5 to 120 nM", "experimental": "(§4) miRNA triggers were transfected into cells in the same manner as in Reference Example 4. After 72 hours, the cells were collected using a cell scraper and lysed with a RIPA buffer (NaCl 150 mM, EDTA 5 mM, Tris 50 mM, NP-40 1.0%, sodium deoxycholate 0.5%, SDS 0.1%). The cell lysate was sonicated 15 times, each for 20 sec, with a halt for 30 sec every sonication. Following centrifugation at 5,000 g for 5 min, the supernatant was taken and used to extract proteins therefrom. A total of 30-40 μg of protein sample was separated in 10-15% SDS-PAGE gel and transferred onto a PVDF membrane through a semi-dry blotting system. The membrane was blocked for 1 hour in 5% skimmed milk and incubated for 2 hours with a 1,000-fold dilution of a primary antibody in, 1% skimmed milk. […] The membrane incubated with the secondary antibody was washed three times with 1×PBST for 10 min each wash, and then reacted with Clarity Western ECL Substrate (#1705061, Bio-Rad), after which images were obtained and analyzed using ChemiDoc (Bio-rad, Hercules, USA).\nA linear miRNA trigger (Mcl-1-141-141; Table 15) that could bind to miR-141 and target mcl-1 was prepared while a linear miRNA trigger (Luc-141-141; Table 9) that could bind to miR-141 and target Luc (luciferase) was used as a control. […] Then, proteins were extracted from the Hela-141 cells and quantitatively analyzed for Mcl-1 protein level by western blotting. […]"}, "[1]": {"tested_on": "FLT3 mutated AML cell line MV4-11", "test": "Cell viability of MV4-11 after transfection", "assay_type": "cell-based", "experimental": "as §1\nA linear miRNA trigger (Mcl-1_155_155 or Bcl-2_155_155) which could bind to miR-155 and target mcl-1 or bcl-2 gene was prepared and transfected into the FLT3 mutated AML cell line MV4-11 which was then measured for cell viability. The results are depicted in FIGS. 31a and 31b. Sequences are listed in Tables 19 and 21 for the linear miRNA triggers prepared above, and in Tables 18 and 19 for the controls Luc-Luc-Luc and luc-155-155, respectively. Every nucleotide of the triggers and the controls were chemically modified with 2′-OMe."}, "cleaved PARP": {"tested_on": "cleaved PARP", "test": "Western blotting of apoptotic marker in HL-60 after siRNA knockdown", "assay_type": "cell-based", "conditions": "HL-60 cells", "experimental": "as §4, with “USA). […]” for “USA).”"}, "[2]": {"tested_on": "MCF-7 breast cancer cells", "test": "Cell viability of MCF-7 after transfection", "assay_type": "cell-based", "conditions": "siRNA 60 nM", "experimental": "as §1\nAn siRNA targeting bcl-2, bcl-xL, or mcl-1 was transfected into MCF-7 breast cancer cells and PANC-1 pancreatic cancer cells. By using qRT-PCR, establishment was made of a condition under which the expression of each target gene is decreased by 80% or more (transfection was performed at a concentration of 60 nM with the aid of Lipofectamine). […] Under the same condition of decreasing the expression of each target gene by 80% or more, the cells transfected with the siRNAs were measured for apoptosis, and the results are depicted in FIGS. 14a and 14b.\nLinear miRNA triggers that could bind to miR-141 or let7f and target bcl-xL or mcl-1 were prepared and transfected alone or in combination into the breast cancer cell line MCF-7 which was then measured for cell viability. […]"}, "Hela cells": {"tested_on": "Hela cells", "test": "Cell viability / apoptosis of Hela cells after transfection", "assay_type": "cell-based", "experimental": "as §1, §2, §3"}, "[3]": {"tested_on": "MOLM-14, MV4-11 and Hela cells", "test": "Fluorescence detection after transfection of Cy5.5-labeled miRNA trigger into cells (IVIS 100)", "assay_type": "cell-based", "conditions": "Lipofectamine", "experimental": "With the aid of Lipofectamine, the linear miRNA trigger (5′-Cy5.5-miR-155-miR-155-PKR-3′) was transfected into the FLT3-ITD mutant AML cell lines MOLM-14 and MV4-11 and the solid cancer cell line Hela. […] Subsequent animal tests were performed with the trigger."}, "[4]": {"test": "In vivo imaging after tail vein injection of Cy5.5-labeled miRNA trigger", "set-up": "species or system C57BL/6 (B6) mice", "method": "As a negative control, PBS was injected at a dose of 200 μl into mice.\nDays 1, 2, and 4 after miRNA trigger injection, in vivo imaging was performed using IVIS 100 (PerkinElmer)."}, "[5]": {"test": "FACS detection of Cy5.5 in hematopoietic origin cells of injected mice", "assay_type": "in vivo, C57BL/6 (B6) mice", "text": "Day 4 after miRNA trigger injection in Example 6-2, mice in the miRNA trigger-administered test group (N=4) and the PBS-administered control (N=4) were sacrificed and specimens (blood cells) were taken from peripheral blood vessels, the spleen, and the bone marrow (femur blood cells). Erythrocytes were removed using an RBC lysis buffer.\nThe cells in peripheral blood sample were gated through three steps (step 1: debris removal, step 2: selection of single blood cell population, step 3: Cy5.5 detection) to select single blood cells of quality. Through FACS, blood cells retaining Cy5.5 were identified. The results are depicted in FIGS. 20a to 20c.\nSpleen-derived hematopoietic cells and bone marrow hematopoietic cells of mice were gated in the foregoing manner and Cy5.5 was detected. The results are depicted in FIGS. 21 and 22. As shown in FIGS. 21a to 21c, 8.7-13.7% of total spleen-derived hematopoietic cells expressed Cy5.5. As in peripheral blood cells, Cy5.5 was detected mainly in lymphocytes and monocytes of the spleen-derived hematopoietic cells."}},
  "note": "Entries after “also recorded” stand apart in the source; their conditions may differ. {Cy5.5} = Cy5.5 fluorophore label",
  "data": [
    {"molecule": "Nc1ccn([C@@H]2O[C@H](CO)[C@@H](O)[C@@H]2O)c(=O)n1", "note": "[cytarabine]", "values": [
      {"measurement": "miR-155 expression", "setting": "miR-155", "result": "did not repress miR-155 express"}
    ]},
    {"molecule": "Mcl-1_141_141: linear miRNA trigger binding miR-141 and targeting Mcl-1 gene; SEQ ID NO 65 (110 in Table 24) (CCAUCUUUACCUCACAGUGUUACCAUCUUUACCUCACAGUGUUACCGAACUACGUAGC; all 2'-O-methyl, backbone not given here)", "values": [
      {"measurement": "apoptosis induced", "setting": "Hela-141 cells", "result": "about 40%"},
      {"measurement": "apoptosis / cell viability (in words)", "setting": "Hela-200c cells", "result": "no significant influence on cell viability"},
      {"measurement": "Mcl-1 protein level compared to control Luc-141-141", "setting": "Mcl-1 protein", "result": "significantly decreased in Mcl-1 protein level"}
    ]},
    {"molecule": "Mcl-1_155_155: linear miRNA trigger binding miR-155 and targeting mcl-1; SEQ ID NO 105 (UUAUGUUUCAGGUUCAGGGGGAUUAUGUUUCAGGUUCAGGGGGACCGAACUACGUAGC; all 2'-O-methyl, backbone not given here)", "values": [
      {"measurement": "apoptosis (cell viability)", "setting": "[1]", "result": "induce MV4-11 to undergo apoptosis"}
    ]},
    {"molecule": "siBcl-2: siRNA targeting bcl-2; SEQ ID NO 62 (AUCAAUCUUCAGCACUCUC; listed as RNA, chemistry not given here)", "values": [
      {"measurement": "expression of apoptotic marker cleaved PARP", "setting": "cleaved PARP", "result": "upregulated"}
    ]},
    {"molecule": "siMcl-1: siRNA targeting mcl-1; SEQ ID NO 64 (AAAUUCGAUACUUCCUUCG; listed as RNA, chemistry not given here) [reference compound]", "values": [
      {"measurement": "cell viability / apoptosis after siRNA (in words)", "setting": "[2]", "result": "decreased in cell viability"},
      {"measurement": "apoptosis / cell viability (in words)", "setting": "Hela cells", "result": "induced apoptosis; also recorded: brought about an apoptotic effect"},
      {"measurement": "apoptosis / cell viability (in words)", "setting": "Hela-141 cells", "result": "induced apoptosis; also recorded: brought about an apoptotic effect"},
      {"measurement": "apoptosis / cell viability (in words)", "setting": "Hela-200c cells", "result": "induced apoptosis"}
    ]},
    {"molecule": "Cy5.5_PKR-155_155: linear miRNA trigger binding miR-155 and targeting PKR, labeled with Cy5.5 fluorophore; SEQ ID NO 69 (nucleic acid, all 2'-O-methyl, 5' {Cy5.5}, backbone not given here) UUAUGUUUCAGGUUCAGGGGGAUUAUGUUUCCAGGUUCAGGGGGAUAUGUGAGGCAGAGAACGA", "values": [
      {"measurement": "fluorescence in transfected cells", "setting": "[3]", "result": "Fluorescence was detected"},
      {"measurement": "time Cy5.5 fluorescence detected in the mouse body", "setting": "[4]", "result": "≥ 4", "unit": "days"},
      {"measurement": "toxicity over the period of in vivo imaging", "setting": "[4]", "result": "particular toxicity was detected from none of the mice"},
      {"measurement": "organs in which Cy5.5 was detected", "setting": "[4]; Invivofectamine, 120 nM, days 1, 2 and 4", "result": "detected in main organs including the liver, the spleen, the bone marrow, and the heart, and the hematopoietic organ"},
      {"measurement": "rate of bone marrow cells expressing Cy5.5", "setting": "[5]; bone marrow, day 4", "result": "1.0-2.0%"},
      {"measurement": "Cy5.5 detected in gated lymphocytes", "setting": "[5]; bone marrow, lymphocytes gated through 4 steps, day 4", "result": "5.4-9.6%"},
      {"measurement": "Cy5.5 detection in blood cells (FACS profile)", "setting": "[5]; day 4 after injection", "result": "detected in blood cells, especially lymphocytes and monocytes"},
      {"measurement": "rate of Cy5.5 detection based on total number of single blood cells", "setting": "[5]; peripheral blood, day 4", "result": "6.2-15.9%"},
      {"measurement": "spleen-derived hematopoietic cells expressing Cy5.5", "setting": "[5]; spleen, day 4", "result": "8.7-13.7%"}
    ]}
  ]
}
